Tests used:
[1] = after application of 5ALA or known derivatives; cited from earlier work
[2] = after intravenous injection; very slow clearance rate from the body; cited from earlier work
[3] = system: human living cells; assay: PpIX synthesis in human living cells, spectrofluorometric measurements (fluorescence at 632 nm); format: cell-based
Excerpt: Using the spectrum of PpIX as reference (FIG. 2), a comparison between PpIX synthesis by the oxime compound according to the invention with that based on the methyl ester of 5ALA currently in clinical use (MetVix), was made on human living cells using spectrofluorometric measurements.
Diamonds=5ALA methyl ester (MetVix); Squares=5ALA oxime 20% w/w in Essex™ cream.

For NCC(=O)CCC(=O)O [5ALA, 5-aminolevulinic acid], the “time after application at which PpIX concentration reaches optimal therapeutic window” value [1] is given as 2 to 4 h and the “time in which PpIX concentration decays to normal background levels” value [1] is given as 36 to 48 h.
In the case of Oc1cccc(-c2c3nc(c(-c4cccc(O)c4)c4ccc([nH]4)c(-c4cccc(O)c4)c4nc(c(-c5cccc(O)c5)c5ccc2[nH]5)CC4)C=C3)c1 [Foscan, temoporfin], the “duration of patient hypersensitization” value [2] is listed as “up to 3 weeks”.
In the case of NCC(CCC(=O)O)=NO [5-ALA oxime], the “production of PpIX” value [3] is reported as “capable of producing PpIX”, the “time for which elevated levels of PpIX are retained after application” value ([3]; 5ALA oxime 20% w/w in Essex cream, human cells, fluorescence at 632 nm) is reported as “at least 6 h” and the “concentration of PpIX generated compared with 5ALA methyl ester (MetVix)” value ([3]; 3 h after application, 5-ALA oxime 20% (w/w) in Essex cream, human cells) is reported as “higher concentration of PpIX”.
